Common to all, as to test: cells
Common to all, as to parameters: Anti-proliferation, 10-point dose response, CellTiter-Glo luminescence (MTT stated for KM12(Luc)), GI50 fitted in Prism

Experiment [1] concerns A375. The conditions noted are these: Homo sapiens, A-375, 72 h, read-out: GI50 (µM) a.
Experiment [2] relates to AN3-CA. To be noted: Homo sapiens, AN3-CA, 72 h, read-out: GI50 (µM) a.
Experiment [3] deals with GIST-T1. To be noted: Homo sapiens, GISTT1, 72 h, read-out: GI50 (µM) a.
Experiment [4] deals with KM12-Luc. The conditions noted are these: KM12-Luc, 72 h, read-out: GI50 (µM) a.
The subject of experiment [5] is MIA-PaCa-2. The conditions noted are these: Homo sapiens, MIA PaCa-2, 72 h, read-out: GI50 (µM) a.
Experiment [6] has as its system MV-4-11. The conditions noted are these: Homo sapiens, MV4-11, 72 h, read-out: GI50 (µM) a.
The subject of experiment [7] is NCI-H2228. The conditions noted are these: Homo sapiens, NCI-H2228, 72 h, read-out: GI50 (µM) a.
For experiment [8], the system named is OCI-AML3. The conditions noted are these: Homo sapiens, OCI-AML-3, 72 h, read-out: GI50 (µM) a.
Experiment [9] concerns RS4-11. To be noted: Homo sapiens, RS4-11, 72 h, read-out: GI50 (µM) a.
Experiment [10] concerns RT-112. To be noted: Homo sapiens, RT-112, 72 h, read-out: GI50 (µM) a.
Experiment [11] has as its system U251. The conditions noted are these: Homo sapiens, U-251, 72 h, read-out: GI50 (µM) a.
Experiment [12] relates to UMUC3. The conditions noted are these: Homo sapiens, UMUC3, 72 h, read-out: GI50 (µM) a.

These results are taken from PMC8591201, “Anti-Tumor Activity of AZD4547 Against NTRK1 Fusion Positive Cancer Cells Through Inhibition of NTRKs” (Frontiers in Oncology, 2021).

Broadly, the GI50 is the concentration that inhibits growth by half.

Consider `COc1cc(CCc2cc(NC(=O)c3ccc(N4C[C@@H](C)N[C@@H](C)C4)cc3)n[nH]2)cc(OC)c1` [AZD4547], for which the GI50 in experiment [1] turned out to be 11.4 µM; in [2], 0.2 µM; in experiment [3], 1.09 µM; in [4] it was 0.11 µM; in experiment [5], 12.2 µM; in [6], 0.93 µM. Moreover, the GI50 in experiment [7] worked out at 17.2 µM; in experiment [8], 6.75 µM; in [9] it was 3.24 µM; in experiment [10], 0.42 µM; in experiment [11], 11.6 µM; in experiment [12], 46.3 µM.
